Laboratory results as given in patent US10232013B2, “Use of an antimicrobial peptide TP4 in treating a cancer” (Academia Sinica, priority 2016, dated 2019).
Where a name gives a salt, the structure may show the parent alone.

Tests used:
Type in all cases: cell-based, human
[1] = system: MB231 (MDA-MB231) cells; experiment: MTS cell viability assay, MB231; settings: MB231, inhibitor added 30 min prior to TP4, cell viability
Description: Cell-lines used in this study were purchased from the Bioresource Collection and Research Center (BCRC) in and the cells were cultured by the standard cell culture procedures and conditions provided by the BCRC. MB231 (BCRC 60425), MB453 (BCRC 60429), and HDF cells were cultured as previously described by Ting et al. MCF7 […] cells were maintained in α-MEM medium (ThermoFisher Scientific) supplemented with 2 mM L-glutamine, 10% FBS, 0.1 mM non-essential amino acids, 1 mM sodium pyruvate, and antibiotics (100 U mL^−1 penicillin G and […] streptomycin). M10 (BCRC 60197) cells were maintained in α-MEM medium (ThermoFisher Scientific) supplemented with 10% FBS and antibiotics. With the exception of MB231 and MB453, all cells were cultured at 37° C. with 5% CO2. For the cell viability and transfection assay, 1×10^4 cells [5×10^3 M10 cells were seeded and cultured for 48 h to allow the cells sufficient time for attachment] were seeded into the wells of a 96-well plate and cultured overnight. For the transfection assays, cells were transfected with 0.1-0.4 μg FOSB/FOSAB expression plasmid (Origene Technology Inc.) and cell viability was determined after 72 h. The transfection efficiencies (number of cells expressing eGFP/all cells) of the MB231 transfection assays were determined by observing ten randomly selected fields (from three independent transfections) of control GFP plasmid transfections under an inverted microscope (Olympus, IX71) coupled to a digital camera (Olympus DP80), using an […] (LCPlanFI 20×/0.40 Ph1). CellSens standard software (Olympus) was used for image acquisition. During the drug treatment assay, inhibitors (PD98059, BAPTA-AM, and AlP II) were added 30 min prior to TP4, and cell viability was determined at indicated time-points. Transfection was performed using LipofectAMINE™ 3000 (ThermoFisher Scientific), according to the manufacturer's recommendations. Knock-down cells were generated by transducing MB231 cells with pre-synthesized FOSB (or control) shRNA lentiviral particles (Santa Cruz Biotechnology), and selecting puromycin-resistant cells in accordance with the manufacturer's standard protocol. MB231 or M10 cells stably expressing eGFP or mOrange2 were generated through transfection with peGFP-puromycin or pmOrange2-C1 plasmid, followed by puromycin (5 μg mL^−1) or G418 (500 μg mL^−1) selection as described above.
Cell viability was quantitatively analyzed using the CellTiter-Glo® Luminescent Cell Viability Assay kit (ATP assay) and CellTiter 96® AQueous Non-Radioactive Cell Proliferation Assay kit (MTS assay) (Promega) in accordance with the manufacturer's protocol. For MTS assay, 1×10^4 cells were seeded into the wells of a 96-well plate and cultured overnight [5×10^3 M10 cells were seeded and cultured for 48 h to enable sufficient well attachment]. Cells were subsequently treated with different doses of TP4 (2.5-20 μg mL^−1) and harvested at the indicated time-points (3-24 h). Reaction mixtures (20 μL: MTS+PMS, using a ratio 20:1) were directly added to the cells, and the plates were incubated for 3 h at 37° C. Absorbance at 490 nm is directly proportional to the number of living cells in culture and was measured using a photometer (SpectraMax® i3, Molecular Devices). ATP assay was performed as previously described by Ting et al. Lactate dehydrogenase (LDH) assays were performed by quantitatively measuring cell lysis with a Cytotoxicity Detection Kit^PLUS (LDH) (Roche) in accordance with the manufacturer's protocol. The LDH standard was purchased from Cayman Chemical. Briefly, 1×10^4 cells were seeded into the wells of a 96-well plate and cultured overnight. Culture media were replaced with fresh medium containing 1% FBS and cells were subsequently treated with different doses of TP4 (2.5-20 μg mL^−1). Supernatants were harvested at 3 h. […]

[2] = system: FOSB in MB231 cells; experiment: FOSB induction, Western blot/immunocytochemistry, MB231; settings: for effect of inhibitor on TP4-induced FOSB induction: TNBC cells, pre-treatment prior to TP4, Western blot
Description: (§1) Nuclear extracts were prepared as previously described^23. Equal amounts of nuclear extract (200 μg) were used for immunoprecipitation (IP) using Dynabeads protein G (ThermoFisher Scientific), in accordance with the recommended protocol. cJUN antibody (ThermoFisher Scientific, clone C.238.2) was used for immunoprecipitation. Total cell extract preparation and Western blot were performed as previously described^23. Equal amounts of boiled lysate (20 μg of total cell extract) were separated on acrylamide gels, and then transferred to PVDF membranes. The membranes were incubated in blocking solution (0.1 M PBS, 5% non-fat milk, 0.2% Tween-20) for 1 h at room temperature (RT), and then incubated in the same solution with primary or secondary antibodies (GE Healthcare Life Science). […] Membranes were visualized with enhanced chemiluminescence (Immobilon Western Chemiluminescent HRP substrate, Merck Millipore) and detected by an imaging system (UVP, BioSpectrum™ 500). Signal intensities were determined by densitometric analysis (AlphaInnotech) using the AlphaImager program. The results were expressed as relative densitometric units (RDU) (the densitometric units of FOSB+FOSΔB divided by those of GAPDH).
The plasma membrane and mitochondria were stained by pre-incubating biotinylated-TP4 treated cells (14 μg mL^−1, 3 h) with Alexa Flour 647 dye-conjugated wheat germ agglutinin (WGA) (5 μg mL^−1) (ThermoFisher Scientific) for 10 min at 37° C. or with MitoTracker® Red CMXRos probe (200 nM) (ThermoFisher Scientific) for 45 min at 37° C. prior to cell fixation. […] The fluorescent signal (which is proportional to functional mitochondria) was quantitatively determined using Image J software. […] The fluorescent FOSB signal was quantitatively determined using Image J software. […]

[3] = system: FOSB in MCF7 cells; experiment: FOSB induction, Western blot/immunocytochemistry, MCF7; settings: Western blot
Description: as §1, with “GAPDH). […]” for “GAPDH).”

[4] = system: FOSB in MB453 cells; experiment: FOSB induction, Western blot/immunocytochemistry, MB453; settings: Western blot
Description: as §1, with “GAPDH). […]” for “GAPDH).”

Compound	effect of inhibitor on TP4-induced TNBC cell death [1]	effect of inhibitor on TP4-induced FOSB induction [2]	FOSB induction [3]	FOSB induction [4]	also measured
Autocamtide-2 related inhibitory peptide II [AIP2, reference compound]	partly prevented	trend towards decrease, but not complete block	–	–	–
COc1cccc2c1C(=O)c1c(O)c3c(c(O)c1C2=O)C[C@@](O)(C(=O)CO)C[C@@H]3O[C@H]1C[C@H](N)[C@H](O)[C@H](C)O1 [doxorubicin, Doxorubicin hydrochloride]	–	–	–	–	FOSB induction ([2]; MB231 (TNBC) cells, Western blot): induced strong FOSB expression
CC(=O)OCOC(=O)CN(CC(=O)OCOC(C)=O)c1ccccc1OCCOc1ccccc1N(CC(=O)OCOC(C)=O)CC(=O)OCOC(C)=O [BAPTA/AM, 1,2-Bis(2-aminophenoxy)ethane-N,N,N,N-tetraacetic acid tetrakis(acetoxymethyl ester), reference compound]	disrupted	disrupted	–	–	–
CC(=O)O[C@@]12CO[C@@H]1C[C@H](O)[C@@]1(C)C(=O)[C@H](O)C3=C(C)[C@@H](OC(=O)[C@H](O)[C@@H](NC(=O)OC(C)(C)C)c4ccccc4)C[C@@](O)([C@@H](OC(=O)c4ccccc4)[C@H]21)C3(C)C [docetaxel, Docetaxel]	–	–	induced FOSB	induced FOSB	–
CC(=O)O[C@H]1C(=O)[C@@]2(C)[C@H]([C@H](OC(=O)c3ccccc3)[C@]3(O)C[C@H](OC(=O)[C@H](O)[C@@H](NC(=O)c4ccccc4)c4ccccc4)C(C)=C1C3(C)C)[C@]1(OC(C)=O)CO[C@@H]1C[C@@H]2O [paclitaxel, Paclitaxel]	–	–	induced FOSB	induced FOSB	–
COc1cccc(-c2cc(=O)c3ccccc3o2)c1N [PD98059, reference compound]	disrupted	–	–	–	–
